Results on four compounds are retold here after publication PMC2894482 (Journal of medicinal chemistry, 2009).

For data set [1], the target named is T1, mGluR5 (Rattus norvegicus, UniProt P31424). The class given is binding. Conditions: alkyne 11 vs similarly substituted amide 34.
Another data set relates to rats. Kind of data set: Preliminary in vivo testing in rats. The conditions noted are these: personal communication with Dr. S. Barak Caine.
Data set [2] addresses T1, mGluR5. Kind of data set: mGluR5 radioligand binding with [3H]1, rat brain membranes.
The target in a further data set is rat mGluR5 (Rattus norvegicus, UniProt P31424). In words: Calcium fluorescence assay. The class given is cell-based.
Sequence of rat mGluR5 (P31424 21-1203): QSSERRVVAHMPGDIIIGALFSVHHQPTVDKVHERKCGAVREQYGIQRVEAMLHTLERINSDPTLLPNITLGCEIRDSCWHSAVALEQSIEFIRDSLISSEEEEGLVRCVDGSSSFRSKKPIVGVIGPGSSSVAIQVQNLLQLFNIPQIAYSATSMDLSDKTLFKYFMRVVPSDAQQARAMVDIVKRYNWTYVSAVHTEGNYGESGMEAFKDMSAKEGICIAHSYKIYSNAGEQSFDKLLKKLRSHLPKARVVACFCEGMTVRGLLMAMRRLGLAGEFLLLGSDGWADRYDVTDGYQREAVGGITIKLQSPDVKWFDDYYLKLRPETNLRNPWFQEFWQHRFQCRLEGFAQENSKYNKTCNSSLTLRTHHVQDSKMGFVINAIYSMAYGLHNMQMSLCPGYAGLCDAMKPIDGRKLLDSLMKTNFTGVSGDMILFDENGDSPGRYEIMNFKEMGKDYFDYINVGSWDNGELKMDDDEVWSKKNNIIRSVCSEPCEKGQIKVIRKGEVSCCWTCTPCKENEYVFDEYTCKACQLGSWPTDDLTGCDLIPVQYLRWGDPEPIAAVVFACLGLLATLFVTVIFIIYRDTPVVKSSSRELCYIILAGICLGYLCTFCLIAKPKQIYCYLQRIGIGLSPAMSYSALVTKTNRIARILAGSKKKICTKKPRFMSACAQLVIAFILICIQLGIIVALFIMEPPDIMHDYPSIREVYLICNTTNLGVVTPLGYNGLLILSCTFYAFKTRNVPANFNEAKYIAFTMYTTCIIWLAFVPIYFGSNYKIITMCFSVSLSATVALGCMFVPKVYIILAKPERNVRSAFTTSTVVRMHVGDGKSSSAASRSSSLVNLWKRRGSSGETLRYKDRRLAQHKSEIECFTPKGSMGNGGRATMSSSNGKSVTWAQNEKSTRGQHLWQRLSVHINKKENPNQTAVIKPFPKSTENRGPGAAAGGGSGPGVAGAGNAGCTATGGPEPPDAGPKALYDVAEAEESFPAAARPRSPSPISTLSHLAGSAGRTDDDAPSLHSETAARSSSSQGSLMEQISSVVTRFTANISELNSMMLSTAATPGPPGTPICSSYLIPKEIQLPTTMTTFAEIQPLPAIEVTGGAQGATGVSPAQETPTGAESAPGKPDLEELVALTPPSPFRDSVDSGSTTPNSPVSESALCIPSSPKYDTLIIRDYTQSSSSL
The subject of data set [3] is cocaine self-administration. The conditions noted are these: cited from earlier work.

T1 sequence (P31424 21-1203): as above

In the case of `Cc1nc(C#Cc2cc(F)cc(C#N)c2)cs1` [Compound 11, 3-Fluoro-5-cyano-1-(2-methylthiazol-4-ylethynyl)benzene], the “fold higher affinity at mGluR5 than the amide” value on mGluR5 [1] is recorded as greater than 70 fold. Besides, the “toxicity in preliminary in vivo testing” value in the data set with rats was “showed toxicity”.
With `Cc1cccc(C#Cc2ccc(-c3cccc(F)c3)c(C#N)c2)n1` [Compound 22, 2-(3-Fluorophenyl)-5-(6-methylpyridin-2-ylethynyl)benzonitrile], the Ki – broadly, a measure of affinity in units of concentration, obtained from inhibition or displacement – at mGluR5 [2] is 17 ± 2.2 nM. The IC50 (as a rule, the concentration needed to halve the response being measured) at rat mGluR5 worked out at 6.1 ± 1.95 nM.
As to `Cc1cccc(C#Cc2ccccc2)n1` [Compound 1, 2-methyl-6-(phenylethynyl)pyridine], the “effect on cocaine self-administration” value in data set [3] was “dose-dependently decreases”. Further, in data set [3] (identical schedules of reinforcement), the “effect on food intake” value is recorded as “no effect”.
For the compound `Cc1cccc(C#Cc2ccc(-c3ccccc3)c(C#N)c2)n1` [Compound 21, 2-Phenyl-5-(6-methylpyridin-2-ylethynyl)benzonitrile], the affinity at mGluR5 [2] corresponds to a Ki of 4 ± 0.6 nM. For the same compound, the IC50 at rat mGluR5 turned out to be 3.08 ± 0.61 nM.
